# Laboratory results published in the supplement of paper PMC10307832.
# Compound: CN(NC(=O)CC(=O)NN(C)C(=S)c1ccccc1)C(=S)c1ccccc1 [Elesclomol]
# Assay: relative viability (nuclei count vs DMSO), 5 days (fraction); higher = more cells survive
# Procedure, shortened: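 Acceptance criteria were a control CV below 25% and at least one doubling per plate. Lung cancer cell lines in 1536-well plates got five library-drug doses (not always all listed) √10 apart by pinning and were left 5 days with no medium change. Viability divides treated-well nuclei by vehicle-well nuclei and is the median across plates. Nuclei were counted by MetaXpress from 4× Hoechst images.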
Cell Line,relative viability (0.003162 µM),relative viability (0.01 µM),relative viability (0.03162 µM),relative viability (0.1 µM)
201T,0.953,0.884,0.86,0.61
A-427,0.963,0.554,0.529,0.18
ABC-1,0.239,0.252,0.201,0.328
BEN,0.937,0.677,0.344,0.307
CAL-12T,0.939,0.442,0.269,0.0778
COR-L23,0.969,0.629,0.461,0.256
COR-L 105,0.85,0.472,0.344,0.221
ChaGo-K-1,0.947,0.952,0.663,0.199
EKVX,0.912,0.662,0.379,0.203
EMC-BAC-2,1.05,0.548,0.602,0.557
EPLC-272H,0.876,0.514,0.534,0.128
H3255,0.879,0.785,0.566,0.442
HARA,0.883,0.879,0.919,0.293
HCC-15,0.964,0.828,0.626,0.231
HCC-44,0.968,0.935,0.831,0.764
HCC-78,0.87,1,0.861,0.926
HCC-366,1.04,1.08,0.924,0.202
HCC-827,1.05,1.02,1.02,1
HOP-62,1.01,0.83,0.89,0.299
IA-LM,0.855,0.374,0.0911,0.0299
LC-2-ad,0.963,0.568,0.241,0.19
LCLC-97TM1,0.735,0.844,0.738,0.0887
LCLC-103H,1,0.856,0.993,0.842
LK-2,0.796,0.715,0.507,0.157
LOU-NH91,1.06,0.856,0.798,0.764

Cell Line,relative viability (0.003162 µM),relative viability (0.01 µM),relative viability (0.03162 µM),relative viability (0.1 µM)
LU99A,0.919,0.811,0.986,0.544
LXF-289,1.03,0.956,0.95,0.772
NCI-H23,1,0.566,0.786,0.128
NCI-H322M,0.893,0.29,0.363,0.266
NCI-H358,0.752,0.225,0.215,0.196
NCI-H441,1.06,0.945,0.55,0.179
NCI-H460,1.01,0.825,0.557,0.0845
NCI-H520,1.03,0.87,0.584,0.134
NCI-H596,0.983,0.842,0.865,0.243
NCI-H647,1,0.617,0.377,0.062
NCI-H650,1,0.696,0.332,0.249
NCI-H661,0.91,0.807,0.374,0.298
NCI-H727,1.04,0.699,0.494,0.301
NCI-H838,0.959,0.883,0.792,0.454
NCI-H1355,1.02,0.685,0.593,0.297
NCI-H1395,0.972,0.475,0.279,0.265
NCI-H1437,0.879,0.635,0.504,0.47
NCI-H1563,0.786,0.675,0.651,0.542
NCI-H1650,0.394,0.281,0.16,0.114
NCI-H1651,0.903,0.954,0.612,0.369
NCI-H1666,1.01,0.933,0.755,0.542
NCI-H1703,0.273,0.173,0.0832,0.101
NCI-H1734,0.976,0.794,0.32,0.127
NCI-H1755,1.01,0.965,0.997,0.801
NCI-H1792,0.916,0.51,0.762,0.513

Cell Line,relative viability (0.003162 µM),relative viability (0.01 µM),relative viability (0.03162 µM),relative viability (0.1 µM)
NCI-H1793,0.893,0.635,0.892,0.251
NCI-H1915,0.994,–,1,0.606
NCI-H1944,1.05,0.948,0.959,0.578
NCI-H1975,0.988,0.732,0.278,0.181
NCI-H1993,0.978,0.871,0.782,0.543
NCI-H2009,0.889,0.416,0.164,0.124
NCI-H2023,0.907,0.305,0.204,0.0874
NCI-H2085,0.998,0.873,0.569,0.385
NCI-H2087,0.987,0.743,0.624,0.313
NCI-H2126,0.962,0.934,0.807,0.556
NCI-H2170,0.967,0.938,0.986,0.657
NCI-H2228,0.923,0.881,0.435,0.078
NCI-H2342,0.865,1.02,0.571,0.612
NCI-H2347,1.01,0.918,0.858,0.616
NCI-H2405,1.08,0.581,0.362,0.384
NCI-H3122,0.987,1,0.957,0.349
PC-3 [JPC-3],1.06,0.892,1.04,0.665
PC-14,0.923,0.261,0.0507,0.039
RERF-LC-KJ,0.816,0.493,0.316,0.311
SK-LU-1,1.07,0.779,0.659,0.287
SK-MES-1,1.05,0.76,0.794,0.489
SW 900,0.871,0.701,0.251,0.0829
SW 1573,0.795,0.267,0.121,0.0819
UMC-11,1.05,0.939,0.709,0.612
